Broadly, the melting point is the temperature, or range, at which the solid turns liquid. As to `CO/C=C(/C(=O)OC)c1ccccc1COc1nc(C(F)(F)F)sc1C`, the melting point was found to be 59 °C.

These data come from patent publication US7166620B2 (dated 2007).
